Reference: the supplement of paper PMC8497498

Key:
[1] = tested on: Plasmodium vivax liver stage (primary human hepatocyte culture)
Outline: (§1)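 Primary human hepatocytes were infected with P. vivax sporozoites taken from mosquitoes fed on patient isolates. Compounds were pin-transferred in 40 nL volumes from 1000× DMSO plates, either at 8 points (10 uM[…]) or at 12 points in duplicate (50 uM–280 pM). Fixed, immunostained wells were imaged by high-content imaging for schizont growth area, hypnozoite count and hepatic nuclei, with values normalised to DMSO and positive-control wells. Potency, maximum inhibition and cytotoxicity based on nuclei loss were derived from CDD Vault curves of the highest-quality run, after toxic bell-shaped points were removed.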

[2] = tested on: Plasmodium cynomolgi Berok K4 asexual blood stage; experiment: EC50 asexual blood stage growth
Outline: (§2)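 Asexual blood-stage P. cynomolgi and P. falciparum were exposed to reference compounds in SYBR Green proliferation assays. For P. cynomolgi, threefold serial dilutions in DMSO gave ten points, which were dispensed acoustically at 500-fold dilution to a top dose of 10 µM, with vehicle and positive-control wells and media containing 0.5% AlbuMAX or 20% macaque serum. P. falciparum was assayed over 72 h in AlbuMAX-containing medium. Each EC50 is the geometric mean across independent experiments.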

[3] = tested on: Plasmodium falciparum 3D7 asexual blood stage; experiment: EC50 asexual blood stage growth; conditions: serum: 0.5% AlbuMAX
Outline: as §2

[4] = tested on: primary human hepatocytes; experiment: CC20 hepatic nuclei (20% reduction); higher = less toxic
Outline: as §1

[5] = tested on: Plasmodium vivax liver stage (primary human hepatocyte culture); experiment: maximum inhibition of schizont net growth area; higher = more active
Outline: as §1

[6] = P. vivax isolate: Pv360, hepatocyte lot: UBV, assay mode: Radical Cure, 8-day (treatment from day 5 post-infection)
[7] = P. vivax isolate: Pv914, hepatocyte lot: BGW, assay mode: Prophylactic, 6-day
[8] = serum: 20% M. fascicularis serum
[9] = P. vivax isolate: Pv557, hepatocyte lot: UBV, assay mode: Radical Cure, 8-day (treatment from day 5 post-infection)

For `C=C(NC(=O)C(=C)NC(=O)c1csc(C2=NC3c4csc(n4)C4NC(=O)c5csc(n5)C(C(C)(O)C(C)O)NC(=O)C5CSC(=N5)C(=CC)NC(=O)C(C(C)O)NC(=O)c5csc(n5)C3(CC2)NC(=O)C(C)NC(=O)C(=C)NC(=O)C(C)NC(=O)C(C(C)CC)NC2C=Cc3c(C(C)O)cc(nc3C2O)C(=O)OC4C)n1)C(N)=O` (stereo not drawn) [Thiostrepton], the EC50 hypnozoite quantity [1, 6] was over 10 µM, the “EC50 schizont net growth area” value [1, 6] was over 3.33 µM and the EC50 hypnozoite quantity [1, 7] was 4.04 µM. The “EC50 schizont net growth area” value [1, 7] was 2.39 µM, the “EC50 asexual blood stage growth” value ([2]; serum: 0.5% AlbuMAX) was 3.93 µM and the “EC50 asexual blood stage growth” value [2, 8] was 9.13 µM. The “EC50 asexual blood stage growth” value [3] was over 10 µM, the CC20 hepatic nuclei [4, 6] was over 10 µM and the CC20 hepatic nuclei [4, 7] was over 3.33 µM. For the same compound, the maximum inhibition [5, 6] was 80.2% and the maximum inhibition [5, 7] was 99.1%.
`CCCCCCC[C@H]1CN[C@H](C(=O)NC(C(C)Cl)C2O[C@H](SC)[C@H](O)[C@@H](O)[C@H]2O)C1` (stereo partly drawn) [Trans-Mirincamycin] was tested, and the EC50 hypnozoite quantity [1, 7] was over 10 µM, the “EC50 asexual blood stage growth” value ([2]; serum: 0.5% AlbuMAX) was over 10 µM and the “EC50 asexual blood stage growth” value [2, 8] was over 10 µM. For the same compound, the “EC50 asexual blood stage growth” value [3] was over 10 µM, the CC20 hepatic nuclei [4, 7] was over 10 µM and the maximum inhibition [5, 7] was 72.5%.
`Nc1ncc(-c2ccc(C(=O)N3CCNCC3)cc2)nc1-c1ccc(C(F)(F)F)cc1` [UCT943] was tested, and the EC50 hypnozoite quantity [1, 9] was over 10 µM, the “EC50 schizont net growth area” value [1, 9] was 0.00238 µM and the EC50 hypnozoite quantity [1, 7] was 0.00427 µM. The “EC50 schizont net growth area” value [1, 7] was 0.00175 µM, the “EC50 asexual blood stage growth” value ([2]; serum: 0.5% AlbuMAX) was 0.0344 µM and the “EC50 asexual blood stage growth” value [2, 8] was 0.0206 µM. The “EC50 asexual blood stage growth” value [3] was 0.318 µM, the CC20 hepatic nuclei [4, 9] was over 10 µM and the CC20 hepatic nuclei [4, 7] was over 10 µM. The maximum inhibition [5, 9] was 101% and the maximum inhibition [5, 7] was 100%.
